In article PMC4438233, “Antibacterial effects of Traditional Chinese Medicine monomers against Streptococcus pneumoniae via inhibiting pneumococcal histidine kinase (VicK)” (Frontiers in Microbiology, 2015):
Several values for one entry are separate records, joined by “and”; a condition that tells them apart may be missing. Equal entries are not always repeated. Where two headings read alike, the source gives them in different places.

Legend:
S. pneumoniae = assay: Checkerboard test with erythromycin or tetracycline against S. pneumoniae; assay type: cell-based, Streptococcus pneumoniae
Description: The antimicrobial effects of different combinations of two antimicrobial agents were assayed using the checkerboard test (Bajaksouzian et al., [1997]). Each experiment was repeated thrice. […] The FIC index (FICI) was calculated using the following formula:
(§1) (2) FIC=FICA+FICB=[A]/MICA+[B]/MICB
(§2) where [A] and [B] are the concentrations of drugs A and B, respectively; MICA and FICA are the MIC and FIC of drug A for the organism, respectively; and MICB, and FICB are the MIC and FIC of drug B for the organism, respectively. The FIC index obtained was interpreted as follows: =0.5, synergy; FIC > 2.0, antagonism (Gupta and Kohli, [2003]).

full-length VicK protein = target: T1, full-length VicK protein (Streptococcus pneumoniae, UniProt Q8DPL8); assay: Inhibition assay for ATPase activity of VicK (Kinase-Glo Luminescent Kinase Assay); assay type: biochemical; conditions: 6 μg VicK, 5 μM ATP
T1 construct: 6 His; made in house
T1 sequence (Q8DPL8 whole entry): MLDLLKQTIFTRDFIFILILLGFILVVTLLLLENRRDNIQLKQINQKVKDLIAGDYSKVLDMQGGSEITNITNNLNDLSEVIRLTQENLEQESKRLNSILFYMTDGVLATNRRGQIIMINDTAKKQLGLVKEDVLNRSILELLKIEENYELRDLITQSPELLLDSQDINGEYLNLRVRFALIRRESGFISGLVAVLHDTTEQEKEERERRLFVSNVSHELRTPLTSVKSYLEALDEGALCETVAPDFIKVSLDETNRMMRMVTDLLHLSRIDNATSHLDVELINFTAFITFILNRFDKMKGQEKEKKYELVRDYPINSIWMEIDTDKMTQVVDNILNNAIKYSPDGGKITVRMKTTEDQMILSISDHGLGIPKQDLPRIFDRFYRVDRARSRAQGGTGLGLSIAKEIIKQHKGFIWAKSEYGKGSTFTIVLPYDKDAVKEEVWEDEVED
Description: The inhibitory activities of the Chinese medicine monomers for the ATPase activity of the full-length VicK protein were evaluated using the Kinase-Glo™Luminescent Kinase Assay (Promega, Madison, USA). Briefly, 6 μg VicK protein was pre-incubated with a series of dilution of compounds in the reaction buffer at 37°C for 30 min. 5 μM ATP was added and incubated for another 30 min. Kinase-Glo™Reagent was also added to detect the remaining ATP recorded from luminescence measurements (RLU). In parallel, the VicK protein with no addition of compounds was used as a control, and the mixture with compounds excluding the VicK protein served as another control. The rate of protein phosphorylation (Rp) inhibition by the compounds was calculated from Equation (1).
(1) Rp=1−RLU(compound+ATP+Reagent) −RLU(compound+ATP+vick+Reagent)/RLU(ATP +Reagent)−RLU(ATP+vick+Reagent)×100%
The half maximal inhibitory concentration (IC50), which is the concentration of inhibition of 50% VicK protein autophosphorylation, was determined by GraphPad Prism 5 (Qin et al., [2006]).

Cytotoxicity assay (MTT) = assay type: cell-based; conditions: African green monkey, Vero cells
Description: The cytotoxicity of the drugs to Vero cells (African green monkey kidney cells) was detected as previously described (Huang et al., [2012]) with minor modifications. In 96-well cell culture plates, the cells (~10^3 cells per well) were exposed to the serially diluted drugs for 48 h. Then, relative cell numbers were assayed by co-incubation with 3-(4, 5-dimethylthiazol-2-yl)-2, 5-diphenyltetrazolium bromide for 4 h at 37°C in 5% CO2. Purple formazan salts were dissolved with DMSO after incubation. The absorbance of each well was measured at 595 nm and then converted to percentages of the control (cells treated with 1% DMSO). The concentration of the derivatives with 50% cytotoxicity for Vero cells (CC50) was calculated using GraphPad Prism 5 (San Diego, CA).

S. pseudopneumoniae = assay: MIC against S. pseudopneumoniae; assay type: cell-based; conditions: Streptococcus pseudopneumoniae
Description: (§3) Minimum inhibitory concentration (MIC) assays for the antibacterial activities of the compounds were performed according to the standard […] method of the Clinical and Laboratory Standards Institute of America. MIC testing of drug-resistant S. pneumoniae, drug-resistant S. aureus, streptococci and antimicrobial combination was also performed using the same method. Briefly, the drugs were serially diluted 2-fold into eight wells with C+Y medium, yielding final concentrations ranging from […]. Then 10^6 CFU bacteria were added to each well. Inoculated medium containing 1% DMSO served as a bacterial growth control, whereas uninoculated medium served as a sterility control. The plates were incubated at 37°C for 12–16 h. […] The experiment was repeated three times.

S. pneumoniae NCTC7466 [1] = assay: Mouse sepsis model, survival time; assay type: in vivo, BALB/c mice; conditions: i.p. infection 1 × 10^3 CFU, drug i.p. thrice a day for 3 d, untreated control 28.8 ± 1.25
Description: Female BALB/c mice (12–15 per group) aged 4–6 weeks were used to evaluate the antimicrobial effects of the compounds in vivo. In sepsis models, the mice were intraperitoneally infected with 100 μL S. pneumoniae NCTC7466 strain suspension (1 × 10^3 CFU). […] Two control groups were injected with 100 μL 1% DMSO (dissolved the drugs, negative control) or PEN (0.42 mg/kg/d, positive control) following the same injection route. The result was expressed as cumulative survival times following 7 d of observation.

pneumococcal strains = assay: MIC against clinical pneumococcal strains (penicillin susceptible, intermediate, resistant); assay type: cell-based, Streptococcus pneumoniae; conditions: for MIC50 / MIC90: Streptococcus pneumoniae
Description: as §3

S. pneumoniae NCTC7466 [2] = assay: MIC against S. pneumoniae NCTC7466 (D39); assay type: cell-based; conditions: Streptococcus pneumoniae
Description: as §3

S. mitis = assay: MIC against S. mitis; assay type: cell-based; conditions: Streptococcus mitis
Description: as §3

[3] = tested on: Penicillin-resistant S. pneumoniae strains; assay: Checkerboard test with penicillin against penicillin-resistant S. pneumoniae; assay type: cell-based, Streptococcus pneumoniae; conditions: agent alone; for MIC: Streptococcus pneumoniae
Description: as §3
(§4) The antimicrobial effects of different combinations of two antimicrobial agents were assayed using the checkerboard test (Bajaksouzian et al., [1997]). Each experiment was repeated thrice. The in vitro interaction between the five drugs with PEN was quantified by the fractional inhibitory concentration (FIC). The FIC index (FICI) was calculated using the following formula:
as §1, §2

S. mutans = assay: MIC against S. mutans; assay type: cell-based; conditions: Streptococcus mutans
Description: as §3

S. pyogenes = assay: MIC against S. pyogenes; assay type: cell-based; conditions: Streptococcus pyogenes
Description: as §3

[4] = tested on: clinical S. pneumoniae 19F (CMCC31693); assay: Mouse colonization model, serotype 19F; assay type: in vivo, BALB/c mice; conditions: 19F
Description: (§5) In colonization models, the mice were intranasally challenged by 20 μL of clinical drug-resistant strains (pneumococcal serotype 19F or 19A, 1.5 × 10^8 CFU). An hour later, the mice were intraperitoneally injected with 100 μL drugs (2 × MIC) alone or in combination with PEN (2 × MIC). These injections were continued thrice a day for 3 d. Nasal wash and lung tissues were obtained to analyze the bacteria load at 24, 48, and 72 h after drug infection. Then 100 μL aliquots of the samples diluted were plated on blood agar plates. The colonies were counted after incubation overnight at 37°C with 5% CO2.

[5] = tested on: clinical S. pneumoniae 19A (CMCC31689); assay: Mouse colonization model, serotype 19A; assay type: in vivo, BALB/c mice; conditions: 19A
Description: as §5

S. aureus = assay: Checkerboard test with penicillin against S. aureus; assay type: cell-based, Staphylococcus aureus; conditions: agent alone
Description: as §3, §4, §1, §2

[6] = in combination with Erythromycin
[7] = in combination with Tetracycline
[8] = Penicillin intermediate (n = 12)

SMILES: CCCCCCCC=NNc1ccc([N+](=O)[O-])cc1[N+](=O)[O-] [Compound 2, Octanal 2,4-dinitrophenylhydrazone]
- FICI (S. pneumoniae; [6]): 2
- FICI (S. pneumoniae; [7]): 0.75
- IC50 (full-length VicK protein; IC50 (inhibition of VicK ATPase activity / autophosphorylation)): 5.4 µM
- IC50 (full-length VicK protein; IC50 (inhibition of VicK ATPase activity / autophosphorylation), value in parentheses): 5.35 µM
- CC50 at 48 h (Cytotoxicity assay (MTT)): > 4000 µM
- MIC (S. pseudopneumoniae; S. pseudopneumoniae clinical isolate, 10^6 CFU/ml, read-out: MIC): 154 µg/mL
- Mean survival of mice ± SEM (S. pneumoniae NCTC7466 [1]): 42.1 ± 4.1 h
- MIC of pneumococcal strains, Range (pneumococcal strains; [8]): 38 to 154 µg/mL
- MIC of pneumococcal strains, Range (pneumococcal strains; Penicillin resistant (n = 15)): 77 to 616 µg/mL
- MIC of pneumococcal strains, Range (pneumococcal strains; Penicillin susceptible (n = 7)): 76 to 152 µg/mL
- MIC50 (pneumococcal strains; Penicillin intermediate (n = 12), read-out: MIC of pneumococcal strains, MIC50): 77 µg/mL
- MIC90 (pneumococcal strains; Penicillin intermediate (n = 12), read-out: MIC of pneumococcal strains, MIC90): 154 µg/mL
- MIC50 (pneumococcal strains; Penicillin resistant (n = 15), read-out: MIC of pneumococcal strains, MIC50): 308 µg/mL
- MIC90 (pneumococcal strains; Penicillin resistant (n = 15), read-out: MIC of pneumococcal strains, MIC90): 616 µg/mL
- MIC50 (pneumococcal strains; Penicillin susceptible (n = 7), read-out: MIC of pneumococcal strains, MIC50): 152 µg/mL
- MIC90 (pneumococcal strains; Penicillin susceptible (n = 7), read-out: MIC of pneumococcal strains, MIC90): 152 µg/mL
- MIC (S. pneumoniae NCTC7466 [2]; S. pneumoniae NCTC7466 (D39), read-out: MIC): 38.5 µg/mL
- MIC (S. pneumoniae NCTC7466 [2]; S. pneumoniae NCTC7466 (D39), value in parentheses, read-out: MIC): 125 µM
- MIC (S. mitis; S. mitis clinical isolate, 10^6 CFU/ml, read-out: MIC): 308 µg/mL
- MIC ([3]; strain 652336, read-out: MIC, Alone): 154 µg/mL
- MIC ([3]; strain 736007, read-out: MIC, Alone): 154 µg/mL
- MIC ([3]; strain 8364981, read-out: MIC, Alone): 77 µg/mL
- MIC ([3]; strain 12092624, read-out: MIC, Alone): 154 µg/mL
- MIC (S. mutans; S. mutans clinical isolate, 10^6 CFU/ml, read-out: MIC): 616 µg/mL
- MIC (S. pyogenes; S. pyogenes clinical isolate, 10^6 CFU/ml, read-out: MIC): 308 µg/mL

SMILES: CC1(C)S[C@@H]2[C@H](NC(=O)Cc3ccccc3)C(=O)N2[C@H]1C(=O)O [Penicillin, penicillin, reference compound]
- Mean log CFU at site of infection ([4]; Lung, 24 h, control 2.82): 1 log CFU
- Mean log CFU at site of infection ([4]; Lung, 48 h, control 7.57): 2.58 log CFU
- Mean log CFU at site of infection ([4]; Lung, 72 h, control 4.95): 3.22 log CFU
- Mean log CFU at site of infection ([4]; NW (nasal wash), 24 h, i.p. three times a day for 3 days, control 6.72): 6.21 log CFU
- Mean log CFU at site of infection ([4]; NW, 48 h, control 6.27): 2.1 log CFU
- Mean log CFU at site of infection ([4]; NW, 72 h, control 7.09): 6.12 log CFU
- Mean log CFU at site of infection ([5]; Lung, 24 h, control 4.85): 4.8 log CFU
- Mean log CFU at site of infection ([5]; Lung, 48 h, control 6.12): 4.5 log CFU
- Mean log CFU at site of infection ([5]; Lung, 72 h, control 6.29): 4.89 log CFU
- Mean log CFU at site of infection ([5]; NW (nasal wash), 24 h, i.p. three times a day for 3 days, control 7.29): 6.44 log CFU
- Mean log CFU at site of infection ([5]; NW, 48 h, control 5.97): 5.88 log CFU
- Mean log CFU at site of infection ([5]; NW, 72 h, control 6.01): 5.34 log CFU
- MIC, Alone ([3]; strain 652336): 4.4 µg/mL
- MIC, Alone ([3]; strain 736007): 7.1 µg/mL
- MIC, Alone ([3]; strain 8364981): 3.56 µg/mL
- MIC, Alone ([3]; strain 12092624): 3.56 µg/mL
- MIC, Alone (S. aureus; MRSA8506305): 6682 µg/mL
- MIC, Alone (S. aureus; MRSA8548991): 3339 µg/mL
- MIC, Alone (S. aureus; S. aureus ATCC29213): 52 µg/mL

SMILES: COC1=CC(=O)O[C@@H](/C=C/c2ccc3c(c2)OCO3)C1 [Compound 4, Kavahin]
- FICI (S. pneumoniae; [6]): 0.5
- Outcome (S. pneumoniae; [6]): Synergy (=0.5, synergy)
- FICI (S. pneumoniae; [7]): 0.51
- IC50 (full-length VicK protein; read-out: IC50 (inhibition of VicK ATPase activity / autophosphorylation) (converted)): 4.6 µM
- IC50 (full-length VicK protein; value in parentheses, read-out: IC50 (inhibition of VicK ATPase activity / autophosphorylation) (converted)): 4.56 µM
- CC50 at 48 h (Cytotoxicity assay (MTT)): > 8000 µM
- MIC (S. pseudopneumoniae): 34 µg/mL
- Mean survival of mice ± SEM (S. pneumoniae NCTC7466 [1]; listed as Kavahin): 71.1 ± 7.1 h
- Mean survival of mice ± SEM (S. pneumoniae NCTC7466 [1]; listed as kavahin): 71 h
- MIC of pneumococcal strains, Range (pneumococcal strains; [8]): 68 to 518 µg/mL
- MIC of pneumococcal strains, Range (pneumococcal strains; Penicillin resistant (n = 15)): 68.5 to 548 µg/mL
- MIC of pneumococcal strains, Range (pneumococcal strains; Penicillin susceptible (n = 7)): 34 to 272 µg/mL
- MIC50 (pneumococcal strains; read-out: MIC of pneumococcal strains, MIC50, Penicillin intermediate (n = 12)): 137 µg/mL
- MIC50 (pneumococcal strains; read-out: MIC of pneumococcal strains, MIC50, Penicillin resistant (n = 15)): 274 µg/mL
- MIC50 (pneumococcal strains; read-out: MIC of pneumococcal strains, MIC50, Penicillin susceptible (n = 7)): 68.5 µg/mL
- MIC90 (pneumococcal strains; read-out: MIC of pneumococcal strains, MIC90, Penicillin intermediate (n = 12)): 274 µg/mL
- MIC90 (pneumococcal strains; read-out: MIC of pneumococcal strains, MIC90, Penicillin resistant (n = 15)): 548 µg/mL
- MIC90 (pneumococcal strains; read-out: MIC of pneumococcal strains, MIC90, Penicillin susceptible (n = 7)): 136 µg/mL
- MIC (S. pneumoniae NCTC7466 [2]; NCTC7466): 68.5 µg/mL and 250 µM
- MIC (S. mitis): 274 µg/mL
- MIC ([3]; read-out: MIC, Alone, strain 652336): 548 µg/mL
- MIC ([3]; read-out: MIC, Alone, strain 736007): 274 µg/mL
- MIC ([3]; read-out: MIC, Alone, strain 8364981): 548 µg/mL
- MIC ([3]; read-out: MIC, Alone, strain 12092624): 274 µg/mL
- MIC (S. mutans): 274 µg/mL
- MIC (S. pyogenes): 274 µg/mL
